# Data from patent publication US20050187253A1, “Medicinal kit to quit tobacco consumption comprising central cannabinoid receptor antagonist” (Sanofi-Aventis, priority 2000, published 2005).
# Tests used:
# [1] = tested on: rats which have learnt to self-administer nicotine intravenously; assay: self-administration of nicotine in rats (model predicting effects on nicotine dependence); assay type: in vivo; conditions: intravenous nicotine self-administration
# Excerpt: The effects of compound A were studied in rats on a model which predicts the effects on nicotine dependence: the self-administration of nicotine according to W.T. Corrigal and al. Psychopharmacology, 1989, 99, 473-478.
# [2] = tested on: individuals who smoked more than 15 cigarettes a day and who showed symptoms of nicotine dependence; assay: double-blind placebo-controlled study of withdrawal from tobacco in smokers; assay type: in vivo, human; conditions: 40 mg per day for 10 weeks, including 2 weeks before start of withdrawal; in particular during the last 4 weeks of treatment; confirmed by exhaled carbon monoxide and plasma cotinine
# Method: The patients received 40 mg of compound A per day for 10 weeks, including 2 weeks before the start of the period of withdrawal from tobacco. […] The withdrawal from tobacco was confirmed by weekly measurement of the levels of carbon monoxide exhaled and of cotinine in the plasma.
structure (smiles),measurement,setting,value
"Cc1c(C(=O)NN2CCCCC2)nn(-c2ccc(Cl)cc2Cl)c1-c1ccc(Cl)cc1 [compound A, N-piperidino-5-(4-chloro-phenyl)-1-(2,4-dichlorophenyl)-4-methylpyrazole-3-carboxamide]",number of nicotine injections,[1]; compound A at a dose of 0.3 mg/kg,"reduces, in a statistically significant manner"
same,number of nicotine injections,[1]; compound A at a dose of 1 mg/kg,"reduces, in a statistically significant manner"
same,level of withdrawal from tobacco versus placebo group,[2],greater level of withdrawal
